Test results from ChEMBL document CHEMBL1201862, “PubChem BioAssay data set” (2004).
Active and inactive are the calls of the source.

Legend:
[1] = molecular target: T1, Neuropeptide Y receptor type 1 (Homo sapiens, UniProt P25929); type: functional;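 on IC50: HEK293 cells with a CNG channel challenged with NPY then isoproterenol; potency as antagonist that reverses NPY suppression of cAMP signal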
T1 sequence (P25929 whole entry): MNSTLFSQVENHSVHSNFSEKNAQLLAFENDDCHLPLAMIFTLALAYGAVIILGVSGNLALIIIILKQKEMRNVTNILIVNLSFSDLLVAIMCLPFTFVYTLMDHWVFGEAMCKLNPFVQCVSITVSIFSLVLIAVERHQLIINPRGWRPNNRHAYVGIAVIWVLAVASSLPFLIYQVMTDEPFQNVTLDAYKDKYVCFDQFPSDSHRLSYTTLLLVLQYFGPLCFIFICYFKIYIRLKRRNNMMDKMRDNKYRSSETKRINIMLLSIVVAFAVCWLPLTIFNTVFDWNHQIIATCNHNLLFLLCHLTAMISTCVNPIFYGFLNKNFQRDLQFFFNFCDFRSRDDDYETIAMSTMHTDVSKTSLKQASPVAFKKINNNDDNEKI

[2] = molecular target: T2, Neuropeptide Y receptor type 2 (Homo sapiens, UniProt P49146); type: functional, cell-based;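 on IC50: HEK293 cells expressing the receptor and a CNG channel; stimulus was NPY near EC95 followed by isoproterenol to raise cAMP; antagonist potency measured as restoring cAMP signal that NPY suppresses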
T2 sequence (P49146 whole entry): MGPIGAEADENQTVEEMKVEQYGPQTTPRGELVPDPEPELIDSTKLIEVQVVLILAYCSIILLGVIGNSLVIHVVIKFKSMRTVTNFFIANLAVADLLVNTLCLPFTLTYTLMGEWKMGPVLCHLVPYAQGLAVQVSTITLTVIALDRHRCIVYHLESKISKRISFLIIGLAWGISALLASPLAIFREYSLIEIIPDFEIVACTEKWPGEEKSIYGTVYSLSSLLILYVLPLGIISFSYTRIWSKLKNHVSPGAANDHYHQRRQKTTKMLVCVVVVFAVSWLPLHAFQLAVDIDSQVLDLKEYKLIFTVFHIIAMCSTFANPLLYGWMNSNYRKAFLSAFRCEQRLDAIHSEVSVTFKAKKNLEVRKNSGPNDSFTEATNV

[3] = molecular target: Ras and Rab interactor 1/Tyrosine-protein kinase ABL1 (Homo sapiens, UniProt P00519+Q13671); type: functional;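 further: biochemical TR-FRET dose-response test measuring inhibition of binding between Rin1 and Abl proteins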
Estrogen receptor = molecular target: T3, Estrogen receptor (Homo sapiens, UniProt P03372); assay: blockers of SRC-3 recruitment to ERα – biochemical, ELISA, streptavidin-HRP readout, orthogonal assay, confirmation (AID 1079)
T3 sequence (P03372 whole entry): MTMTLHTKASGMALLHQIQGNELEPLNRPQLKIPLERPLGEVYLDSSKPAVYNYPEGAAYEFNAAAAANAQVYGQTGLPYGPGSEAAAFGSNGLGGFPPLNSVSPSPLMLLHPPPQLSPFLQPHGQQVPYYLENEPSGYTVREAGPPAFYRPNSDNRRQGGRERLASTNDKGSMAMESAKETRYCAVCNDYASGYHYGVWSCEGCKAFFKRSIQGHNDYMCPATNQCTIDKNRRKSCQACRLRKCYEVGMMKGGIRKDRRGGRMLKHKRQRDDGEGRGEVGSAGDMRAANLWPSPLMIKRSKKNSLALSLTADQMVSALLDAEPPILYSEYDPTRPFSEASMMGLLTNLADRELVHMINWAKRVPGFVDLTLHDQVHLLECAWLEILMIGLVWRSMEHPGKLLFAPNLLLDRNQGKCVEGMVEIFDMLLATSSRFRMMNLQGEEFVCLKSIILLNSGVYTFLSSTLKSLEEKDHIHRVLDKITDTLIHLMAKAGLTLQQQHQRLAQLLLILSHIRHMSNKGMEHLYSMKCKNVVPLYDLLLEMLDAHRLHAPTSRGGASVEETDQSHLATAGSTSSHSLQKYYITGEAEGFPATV

[4] = molecular target: T2, Neuropeptide Y receptor type 2; assay: Fluorescence-based counterscreen for agonists of NPY-Y1: cell-based high-throughput dose response assay for agonists of NPY-Y2.; type: functional
HEK293 [5] = assay: Fluorescence-based counterscreen for potentiators or agonists of NPY-Y1: cell-based high-throughput dose response assay for inhibitors of cyclic nucleotide gated ion channel (CNGC) activity. In this assay, the parental HEK293 cell line transfected with a cyclic-nucleotide gated ion channel (CNGC)-based cAMP sensor is used to measure inhibition of isoproterenol-induced CNGC …; type: functional; conditions: Homo sapiens
[6] = molecular target: T1, Neuropeptide Y receptor type 1; assay: Fluorescence-based dose response cell-based high-throughput screening assay for agonists of NPY-Y1. [Related pubchem assays: 1697 (Screening assay (NPY-Y1 agonists).), 1359 (Screening assay (NPY-Y2 potentiators or agonists).), 1304 (Screening assay (NPY-Y1 potentiators or agonists).), 1704 (Screening assay (CNGC inhibitors).), 1791 (Summary AID.)]; type: functional
Bcl-2-like protein 10 = Bcl-2-like protein 10 (Homo sapiens, UniProt Q9HD36); assay: Bcl-B/TR3 peptide binding disruption – biochemical, fluorescence polarization, FITC-TR3 peptide, selectivity assay for Bfl-1 inhibitor project, primary screen (AID 748);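 further: fluorescence polarization from a fluorescein-labelled TR3 peptide binding purified Bcl-B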
Estrogen receptor beta = Estrogen receptor beta (Homo sapiens, UniProt Q92731); assay: blockers of SRC-3 recruitment to ERβ – biochemical, ELISA, streptavidin-HRP readout, orthogonal assay, confirmation (AID 1060)
[7] = molecular target: Induced myeloid leukemia cell differentiation protein Mcl-1 (Homo sapiens, UniProt Q07820); type: functional
[8] = molecular target: T4, Tyrosine-protein phosphatase non-receptor type 7 (Homo sapiens, UniProt P35236); assay: redox-active compounds inhibiting HePTP phosphatase – biochemical, fluorescence, mechanism study (AID 2068); type: functional
T4 sequence (P35236 whole entry): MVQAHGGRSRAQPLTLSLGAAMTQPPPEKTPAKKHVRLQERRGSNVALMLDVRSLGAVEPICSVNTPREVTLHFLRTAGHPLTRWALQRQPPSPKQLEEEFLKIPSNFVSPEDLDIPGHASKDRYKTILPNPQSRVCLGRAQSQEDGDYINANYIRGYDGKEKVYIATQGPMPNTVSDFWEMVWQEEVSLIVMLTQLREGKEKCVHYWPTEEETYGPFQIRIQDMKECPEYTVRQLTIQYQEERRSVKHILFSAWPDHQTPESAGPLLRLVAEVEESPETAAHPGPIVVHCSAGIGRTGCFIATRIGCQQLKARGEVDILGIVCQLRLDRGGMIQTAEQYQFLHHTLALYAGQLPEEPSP

HEK293 [9] = assay: Fluorescence-based counterscreen for potentiators or agonists of NPY-Y2: cell-based high-throughput dose response assay to identify inhibitors of cyclic nucleotide gated ion channel (CNGC) activity. In this assay, the parental HEK293 cell line transfected with a cyclic-nucleotide gated ion channel (CNGC)-based cAMP sensor is used to measure inhibition of isoproterenol-induced CNGC activity by test compound.; type: functional; conditions: Homo sapiens
[10] = molecular target: T2, Neuropeptide Y receptor type 2; assay: Fluorescence-based cell-based high-throughput dose response assay for agonists of NPY-Y2. [Related pubchem assays: 1703 (Screening assay (CNGC inhibitors).), 1359 (Screening assay (NPY-Y2 potentiators or agonists).), 1304 (Screening assay (NPY-Y1 potentiators or agonists).), 1710 (Screening assay (NPY-Y2 agonists).), 1791 (Summary AID.)]; type: functional
[11] = molecular target: T1, Neuropeptide Y receptor type 1; assay: Fluorescence-based counterscreen for agonists of NPY-Y2: cell-based high-throughput dose response assay for agonists of NPY-Y1.; type: functional
Streptococcus = assay: Luminescence Microorganism-Based Dose Response Follow up to Identify Compounds Cytotoxic to Streptococcus. [Related pubchem assays: 1677 (Project Summary), 1915, 1914, 1902 (Retest at Dose), 1900 (Counter Screen), 1662 (Primary HTS)]; type: functional, organism-based

Ras and Rab interactor 1/Tyrosine-protein kinase ABL1, sequence (P00519 whole entry): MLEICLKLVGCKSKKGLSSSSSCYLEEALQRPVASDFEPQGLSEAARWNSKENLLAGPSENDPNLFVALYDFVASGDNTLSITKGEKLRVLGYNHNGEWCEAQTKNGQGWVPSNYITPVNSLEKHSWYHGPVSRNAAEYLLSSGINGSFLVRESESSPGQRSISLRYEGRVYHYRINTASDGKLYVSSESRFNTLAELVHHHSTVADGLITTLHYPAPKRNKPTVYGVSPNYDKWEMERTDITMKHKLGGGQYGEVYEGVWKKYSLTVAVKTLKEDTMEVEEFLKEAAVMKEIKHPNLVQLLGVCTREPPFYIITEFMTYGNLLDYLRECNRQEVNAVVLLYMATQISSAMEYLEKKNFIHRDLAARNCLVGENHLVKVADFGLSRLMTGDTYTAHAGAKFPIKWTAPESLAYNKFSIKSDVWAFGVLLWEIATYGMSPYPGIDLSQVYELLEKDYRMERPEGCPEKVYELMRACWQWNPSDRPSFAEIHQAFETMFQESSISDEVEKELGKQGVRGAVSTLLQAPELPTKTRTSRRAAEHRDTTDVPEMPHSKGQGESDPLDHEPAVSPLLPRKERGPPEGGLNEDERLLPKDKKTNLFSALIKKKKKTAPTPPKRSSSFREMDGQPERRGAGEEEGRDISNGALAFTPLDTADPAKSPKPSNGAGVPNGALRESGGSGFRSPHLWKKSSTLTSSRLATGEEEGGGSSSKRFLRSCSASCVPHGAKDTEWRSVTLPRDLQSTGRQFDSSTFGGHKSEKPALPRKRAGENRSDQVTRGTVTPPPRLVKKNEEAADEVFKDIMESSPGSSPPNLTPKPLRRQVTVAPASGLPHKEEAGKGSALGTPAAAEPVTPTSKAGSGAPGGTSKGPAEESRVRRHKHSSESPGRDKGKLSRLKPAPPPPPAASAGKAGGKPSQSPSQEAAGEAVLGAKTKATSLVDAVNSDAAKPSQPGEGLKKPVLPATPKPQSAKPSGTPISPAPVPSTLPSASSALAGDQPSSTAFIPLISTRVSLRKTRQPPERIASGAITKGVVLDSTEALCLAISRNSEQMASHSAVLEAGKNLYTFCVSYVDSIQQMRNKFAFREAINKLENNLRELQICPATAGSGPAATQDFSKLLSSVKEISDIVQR
Ras and Rab interactor 1/Tyrosine-protein kinase ABL1, sequence (Q13671 whole entry): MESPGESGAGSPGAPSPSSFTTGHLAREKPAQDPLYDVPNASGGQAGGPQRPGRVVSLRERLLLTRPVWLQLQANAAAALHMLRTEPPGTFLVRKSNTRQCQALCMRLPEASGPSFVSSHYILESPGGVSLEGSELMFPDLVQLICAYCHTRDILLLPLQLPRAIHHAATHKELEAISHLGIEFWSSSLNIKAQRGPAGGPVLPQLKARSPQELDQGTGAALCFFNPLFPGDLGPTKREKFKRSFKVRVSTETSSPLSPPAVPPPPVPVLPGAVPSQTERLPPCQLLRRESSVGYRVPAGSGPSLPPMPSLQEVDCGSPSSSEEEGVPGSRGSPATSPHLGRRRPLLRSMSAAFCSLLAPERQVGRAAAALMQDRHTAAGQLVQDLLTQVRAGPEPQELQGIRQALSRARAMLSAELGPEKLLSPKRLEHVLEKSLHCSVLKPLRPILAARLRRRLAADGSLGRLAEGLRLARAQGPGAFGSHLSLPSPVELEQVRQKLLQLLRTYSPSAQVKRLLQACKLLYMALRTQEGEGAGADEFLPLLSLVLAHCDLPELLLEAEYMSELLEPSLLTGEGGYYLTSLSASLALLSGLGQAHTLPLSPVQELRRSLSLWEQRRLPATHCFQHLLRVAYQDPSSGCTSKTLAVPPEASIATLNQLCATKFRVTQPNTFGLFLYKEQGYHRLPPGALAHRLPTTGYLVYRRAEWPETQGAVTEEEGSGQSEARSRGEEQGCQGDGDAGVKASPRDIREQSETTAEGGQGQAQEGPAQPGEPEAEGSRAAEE
Induced myeloid leukemia cell differentiation protein Mcl-1, sequence (Q07820 whole entry): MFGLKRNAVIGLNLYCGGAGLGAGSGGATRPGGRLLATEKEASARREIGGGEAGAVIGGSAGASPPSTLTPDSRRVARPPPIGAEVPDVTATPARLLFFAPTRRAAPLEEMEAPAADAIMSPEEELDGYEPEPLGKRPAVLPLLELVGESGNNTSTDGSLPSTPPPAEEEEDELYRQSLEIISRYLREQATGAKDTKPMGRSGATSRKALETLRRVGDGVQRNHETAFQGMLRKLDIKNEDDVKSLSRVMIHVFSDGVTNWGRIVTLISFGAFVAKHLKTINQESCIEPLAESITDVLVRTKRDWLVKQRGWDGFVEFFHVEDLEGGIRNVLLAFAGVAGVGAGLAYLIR
Bcl-2-like protein 10, sequence (Q9HD36 whole entry): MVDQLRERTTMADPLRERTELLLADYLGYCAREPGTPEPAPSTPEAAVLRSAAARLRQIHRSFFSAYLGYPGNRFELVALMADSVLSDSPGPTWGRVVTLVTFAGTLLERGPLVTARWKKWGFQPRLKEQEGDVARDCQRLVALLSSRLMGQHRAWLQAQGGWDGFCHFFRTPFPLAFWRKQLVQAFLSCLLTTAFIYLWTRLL
Estrogen receptor beta, sequence (Q92731 whole entry): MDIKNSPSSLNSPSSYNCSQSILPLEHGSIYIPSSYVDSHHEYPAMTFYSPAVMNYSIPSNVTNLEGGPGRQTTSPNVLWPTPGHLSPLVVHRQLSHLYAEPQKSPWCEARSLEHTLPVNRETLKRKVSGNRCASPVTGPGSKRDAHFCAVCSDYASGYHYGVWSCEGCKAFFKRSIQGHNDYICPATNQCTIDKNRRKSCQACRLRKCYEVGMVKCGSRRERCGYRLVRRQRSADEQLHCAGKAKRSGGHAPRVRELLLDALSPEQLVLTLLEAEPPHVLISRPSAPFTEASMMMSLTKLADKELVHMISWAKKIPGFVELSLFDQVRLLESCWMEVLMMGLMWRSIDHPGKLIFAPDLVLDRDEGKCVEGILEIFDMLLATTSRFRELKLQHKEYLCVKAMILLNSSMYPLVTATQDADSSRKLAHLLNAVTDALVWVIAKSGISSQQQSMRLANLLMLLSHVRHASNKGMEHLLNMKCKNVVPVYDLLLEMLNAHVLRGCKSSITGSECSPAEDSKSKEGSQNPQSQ

CCOC(=O)CCCCC(=O)c1[nH]c(O)nc1CSc1nnc2c3ccccc3n(C(C)C)c2n1
IC50 [1]: 7.63 µM (active)
IC50 [2]: 2.95 µM (active)
IC50 [3]: 3.46 µM (active)

O=C(CCCCCn1c(=S)[nH]c2ccccc2c1=O)N1CCN(c2cccc([N+](=O)[O-])c2)CC1
IC50 (Estrogen receptor): 0.84 µM (not active)

CC1CC(C)CN(CCCNC(=O)c2cc3c(O)nc4ccccc4c3n2C)C1 (stereo not given)
EC50 [4]: > 35.4 µM (not active)
IC50 (HEK293 [5]): 19.8 µM (not active)
EC50 [6]: > 35.4 µM (not active)

O=C(NCc1ccccn1)c1ccc2nc(-c3ccco3)c(-c3ccco3)nc2c1
IC50 (Bcl-2-like protein 10): 9.92 µM (active)
IC50 (Estrogen receptor beta): 4.9 µM (not active)
IC50 [7]: 2.28 µM (active)
IC50 [8]: 3.99 µM (active)

COc1ccc(-n2nnnc2SCC(=O)NCCc2ccccc2)cc1OC
EC50 (HEK293 [9]): > 35.4 µM (not active)
EC50 [10]: > 35.4 µM (not active)
EC50 [11]: > 35.4 µM (not active)

CN1C(=O)/C(=C\c2cccn2-c2ccc3ccccc3c2)C(=O)NC1=S
EC50 (Streptococcus): > 260 µM (not active)
